Experiments:
[1] = tested on: poly-ADP ribose polymerase (PARP); set-up: method as in PMID 35682740; conditions: previous work of the authors; cited from earlier work
[2] = tested on: human colon cancer cell lines: HCT 116, SW620, LoVo, Caco-2, and HT-29; test: MTT cell viability assay, statements across the panel; assay type: cell-based; conditions: Homo sapiens, range over the cancer cell lines, read-out: IC50 range against colon cancer cell lines
Procedure: The cytotoxic activity of the 3-benzylideneflavanones, 3-benzylidenechromanones derivatives (compounds 1, 2, 3, 4, 5) and 5′-(3-methoxyphenyl)-2-phenyl-4′,5′-dihydro-4H-spiro[chromano-3,3′-pirazol]-4-one (compound 3a) was evaluated using the MTT assay (4,5-dimethylthiazol-2-yl)-2,5-diphenyltetrazoliumbromide), a colorimetric method that quantifies cell viability. […] These IC50 values were subsequently used for all experiments investigating the anticancer activity of the flavanone/chromanone derivatives in this study.
(§1) Cell viability was determined using the metabolic microplate spectrophotometric assay with Methylthiazolyl diphenyltetrazolium bromide (MTT) (Sigma-Aldrich; St. Louis, MO, USA). The MTT method belongs to metabolic tests for determining cell viability and consists of measuring the absorbance of a violet solution of formazan, a product of the reduction of a water-soluble yellow MTT by oxidoreductive enzymes (mainly mitochondrial succinate dehydrogenase) of living cells. The amount of the reaction product (water-insoluble formazan crystals) is proportional to the number of living and metabolically active cells in the sample. In the case of damaged or dead cells, formazan is formed in smaller amounts, or it is not formed.
The appropriate number of cells for a given cell line (6–8 × 10^3 cells/mL) were seeded onto colorless, sterile 96-well microplates (Nunc, Roskilde, Denmark) in the number appropriate for a given cell line. After 24 h of culture, various concentrations of the studied compounds (10^−7–10^−5 M) freshly prepared in DMSO (final concentration DMS < 0.1%) and diluted with complete culture medium were added and incubated in a CO2 incubator for 24 h. After this time, the medium was removed; the cell monolayer was washed twice with sterile PBS solution; and fresh culture medium was added to the microplate wells. After 48 h of cell culture, the MTT test was performed. A volume of 50 μL of tetrazolium salt solution (final concentration 0.05 mg/mL) was added to each microplate well. The microplate was placed for 3–4 h (depending on the cell line) in a CO2 incubator. After incubation, 100 μL of DMSO was added to the wells of the microplate to dissolve the purple formazan crystals formed in the living cell environment. The absorbance of the formazan solution, after gentle mixing, was read at a wavelength of λ = 580 nm and a reference wavelength of λ = 720 nm (Biotek Power Wave HT, Biotek Instruments, Winooski, VT, USA). The percentage of living cells was calculated by comparing the absorbance value of the tested samples with the absorbance value of the control (cells not treated with compounds). The absorbance of the control was taken as 100%. […] Moreover, cisplatin (Sigma-Aldrich, St. Louis, MO, USA) was used as a reference compound, and identical incubation conditions were used as described above.

HCT 116 = test: MTT cell viability assay; assay type: cell-based; conditions: Homo sapiens, 24 h incubation with compound, mean ± SD of three experiments, read-out: Cytotoxic effect, IC50
Procedure: (§2) The cytotoxic activity of the 3-benzylideneflavanones, 3-benzylidenechromanones derivatives (compounds 1, 2, 3, 4, 5) and 5′-(3-methoxyphenyl)-2-phenyl-4′,5′-dihydro-4H-spiro[chromano-3,3′-pirazol]-4-one (compound 3a) was evaluated using the MTT assay (4,5-dimethylthiazol-2-yl)-2,5-diphenyltetrazoliumbromide), a colorimetric method that quantifies cell viability.
as §1
(§3) The appropriate number of cells for a given cell line (6–8 × 10^3 cells/mL) were seeded onto colorless, sterile 96-well microplates (Nunc, Roskilde, Denmark) in the number appropriate for a given cell line. After 24 h of culture, various concentrations of the studied compounds (10^−7–10^−5 M) freshly prepared in DMSO (final concentration DMS < 0.1%) and diluted with complete culture medium were added and incubated in a CO2 incubator for 24 h. After this time, the medium was removed; the cell monolayer was washed twice with sterile PBS solution; and fresh culture medium was added to the microplate wells. After 48 h of cell culture, the MTT test was performed. A volume of 50 μL of tetrazolium salt solution (final concentration 0.05 mg/mL) was added to each microplate well. The microplate was placed for 3–4 h (depending on the cell line) in a CO2 incubator. After incubation, 100 μL of DMSO was added to the wells of the microplate to dissolve the purple formazan crystals formed in the living cell environment. The absorbance of the formazan solution, after gentle mixing, was read at a wavelength of λ = 580 nm and a reference wavelength of λ = 720 nm (Biotek Power Wave HT, Biotek Instruments, Winooski, VT, USA). The percentage of living cells was calculated by comparing the absorbance value of the tested samples with the absorbance value of the control (cells not treated with compounds). The absorbance of the control was taken as 100%.

SW620 = test: MTT cell viability assay; assay type: cell-based; conditions: Homo sapiens, SW-620, 24 h incubation with compound, mean ± SD of three experiments, read-out: Cytotoxic effect, IC50
Procedure: as §2, §1, §3

LoVo = test: MTT cell viability assay; assay type: cell-based; conditions: Homo sapiens, 24 h incubation with compound, mean ± SD of three experiments, read-out: Cytotoxic effect, IC50
Procedure: as §2, §1, §3

HT-29 = test: MTT cell viability assay; assay type: cell-based, human; conditions: Homo sapiens, HT-29, 24 h, HT-29, 24 h incubation with compound, mean ± SD of three experiments, read-out: Cytotoxic effect, IC50
Procedure: as §2, §1, §3

Caco-2 = test: MTT cell viability assay; assay type: cell-based, human; conditions: Homo sapiens, Caco-2, 24 h, 24 h incubation with compound, mean ± SD of three experiments, read-out: Cytotoxic effect, IC50
Procedure: as §2, §1, §3

Row | Compound | Interaction with PARP [1] | IC50 [2] [µM] | IC50 (HCT 116) [µM] | IC50 (SW620) [µM] | IC50 (LoVo) [µM] | IC50 (HT-29) [µM] | IC50 (Caco-2) [µM]
1 | Cc1cccc(C2CC3(N=N2)C(=O)c2ccccc2OC3c2ccccc2)c1 (stereo not shown) [5′-(3-methylphenyl)-2-phenyl-4′,5′-dihydro-4H-spiro[chromano-3,3′-pirazol]-4-one] | effectively interacted with poly-ADP ribose polymerase (PARP), leading to its inactivation and degradation | – | – | – | – | – | –
2 | CCN(CC)c1ccc(/C=C2/C(=O)c3ccccc3OC2c2ccccc2)cc1 (stereo not shown) [Compound 2] | – | 70 to 210 | 192 ± 3.4 | 211 ± 2.9 | 200 ± 6.6 | > 250 | > 250
3 | Cc1ccc(/C=C2/C(=O)c3ccccc3OC2c2ccccc2)cc1 (stereo not shown) [Compound 4] | – | 70 to 210 | 113 ± 5.1 | > 250 | 178 ± 4.4 | 172 ± 4.2 | 156 ± 5.2
